Patent publication US12509462B2, “3-(phenylsulfonyl)-[1,2,3]triazolo[1,5A]quinazolin-5(4H)-one derivatives” (BIOVERSYS AG, priority 2018, dated 2025)
Values after ≈ are worked out from the molar mass of the structure shown. Read-outs that look alike come from different tables or passages of the source.

How the values were obtained:
HepG2 = settings: 48 h
MRSA = experiment: MIC by broth microdilution in CA-MHB (CLSI); settings: Staphylococcus aureus, 18 h, read-out: MIC on MRSA
Procedure: Minimal inhibitory concentrations (MIC) were determined by broth microdilution method in cation-adjusted Mueller-Hinton (CA-MHB) broth according to the CLSI guideline. From an overnight culture plate, cells were resuspended in 0.9% (w/v) saline solution and bacterial inoculum was prepared in CA-MHB with 5×10^5 CFU/ml. Compounds were two-fold serially diluted in CA-MHB and 10 μL of this 10× concentrated samples were added into the 96-well plate. 90 μL of bacterial suspension was finally added to the compounds. Plates were covered and incubated without shaking at 35° C. for 18 hours. Every experiment contained an antibiotic as quality control. MIC was determined visually as the lowest concentration of a compound that prevents visible growth of the bacteria and the plates were scanned for documentation.

[1] = tested on: Staphylococcus aureus MRSA strain (USA300 isolate); experiment: Hemolysis Assay II (exotoxin-mediated lysis of rabbit red blood cells by culture filtrate); format: cell-based; settings: Erythrocyte; for minimal effective concentration / IC95: 18 h; for minimal effective concentration: absorbance <2× the average of the complete inhibition control, read-out: Hemolysis assay II MEC (minimal effective concentration); for IC95: read-out: Hemolysis assay II IC95; for IC50: 18 h culture in CA-MHB, rabbit red blood cells

Row | SMILES | LD50 HepG2 (HepG2; human) | MIC (MRSA) [µM] | minimal effective concentration [1] [µg/mL] | IC95 [1] [µg/mL] | IC50 [1] [µg/mL] | LD50 HepG2 (HepG2; compounds 0.8-100 μM, SEAP readout)
1 | Cc1ccc(S(=O)(=O)c2nnn3c2[nH]c(=O)c2cc(Cl)ccc23)c(C)c1 [Compound 1, 7-chloro-3-(2,4-dimethylphenyl)sulfonyl-4H-triazolo[1,5-a]quinazolin-5-one] | >=100 μM | ≥ 100 | 4 | 2.95 (≈ 7.59 µM) | 1.1 (≈ 2.83 µM) | –
2 | Cc1ccc(S(=O)(=O)c2nnn3c2[nH]c(=O)c2c(Cl)cccc23)c(C)c1 [Compound 2, 6-chloro-3-(2,4-dimethylphenyl)sulfonyl-4H-triazolo[1,5-a]quinazolin-5-one] | >=100 μM | ≥ 100 | 2 | 2.5 (≈ 6.43 µM) | 0.85 (≈ 2.19 µM) | –
3 | Cc1ccc(S(=O)(=O)c2nnn3c2[nH]c(=O)c2cccc(Cl)c23)c(C)c1 [Compound 4, 9-chloro-3-(2,4-dimethylphenyl)sulfonyl-4H-triazolo[1,5-a]quinazolin-5-one] | 50 µM | ≥ 100 | 8 | 5.2 (≈ 13.4 µM) | 2.3 (≈ 5.92 µM) | –
4 | Cc1ccc(S(=O)(=O)c2nnn3c2[nH]c(=O)c2ccc(F)cc23)c(C)c1 [Compound 7, 3-(2,4-dimethylphenyl)sulfonyl-8-fluoro-4H-triazolo[1,5-a]quinazolin-5-one] | >=100 μM | ≥ 100 | 4 | 4.8 (≈ 12.9 µM) | 1.7 (≈ 4.57 µM) | –
5 | CC(C)c1ccc(S(=O)(=O)c2nnn3c2[nH]c(=O)c2c(Cl)cccc23)cc1 [Compound 8, 6-chloro-3-(4-isopropylphenyl)sulfonyl-4H-triazolo[1,5-a]quinazolin-5-one] | >=100 μM | ≥ 100 | 4 | 3.8 (≈ 9.43 µM) | 2.2 (≈ 5.46 µM) | –
6 | COc1ccc2c(=O)[nH]c3c(S(=O)(=O)c4ccc(C5CC5)cc4)nnn3c2c1 [Compound 21, 3-(4-cyclopropylphenyl)sulfonyl-8-methoxy-4H-triazolo[1,5-a]quinazolin-5-one] | >=100 μM | ≥ 100 | 4 | 3.4 (≈ 8.58 µM) | 1.5 (≈ 3.78 µM) | –
7 | COc1ccc2c(=O)[nH]c3c(S(=O)(=O)c4ccc(C5CC5)cc4C)nnn3c2c1 [Compound 27, 3-(4-cyclopropyl-2-methyl-phenyl)sulfonyl-8-methoxy-4H-triazolo[1,5-a]quinazolin-5-one] | >=100 μM | ≥ 100 | 2 | 1.9 (≈ 4.63 µM) | 0.15 (≈ 0.365 µM) | –
8 | CCc1ccc(S(=O)(=O)c2nnn3c2[nH]c(=O)c2ccc(OC)cc23)c(C)c1 [Compound 28, 3-(4-ethyl-2-methyl-phenyl)sulfonyl-8-methoxy-4H-triazolo[1,5-a]quinazolin-5-one] | >=100 μM | ≥ 100 | 8 | 4.5 (≈ 11.3 µM) | 2 (≈ 5.02 µM) | –
9 | Cc1ccc(S(=O)(=O)c2nnn3c2[nH]c(=O)c2ccc(Br)cc23)c(C)c1 [Compound 38, 8-bromo-3-(2,4-dimethylphenyl)sulfonyl-4H-triazolo[1,5-a]quinazolin-5-one] | >=100 μM | 50 (≈ 21.7 µg/mL) | 4 | 4.6 (≈ 10.6 µM) | 1.4 (≈ 3.23 µM) | –
10 | COCCCOc1ccc2c(=O)[nH]c3c(S(=O)(=O)c4ccc(C)cc4C)nnn3c2c1 [Compound 40, 3-(2,4-dimethylphenyl)sulfonyl-8-(3-methoxypropoxy)-4H-triazolo[1,5-a]quinazolin-5-one] | >=100 μM | ≥ 100 | 3 | 4.4 (≈ 9.94 µM) | 1.05 (≈ 2.37 µM) | –
11 | Cc1ccc(S(=O)(=O)c2nnn3c2[nH]c(=O)c2ccc(OCCCC#N)cc23)c(C)c1 [Compound 41, 4-[[3-(2,4-dimethylphenyl)sulfonyl-5-oxo-4H-triazolo[1,5-a]quinazolin-8-yl]oxy]butanenitrile] | >=100 μM | ≥ 100 | 2 | 2.5 (≈ 5.71 µM) | 0.65 (≈ 1.49 µM) | –
12 | Cc1ccc(S(=O)(=O)c2nnn3c2[nH]c(=O)c2ccc(I)cc23)c(C)c1 [Compound 42, 3-(2,4-dimethylphenyl)sulfonyl-8-iodo-4H-triazolo[1,5-a]quinazolin-5-one] | >=100 μM | ≥ 100 | 6 | 10.1 (≈ 20.9 µM) | 2.05 (≈ 4.27 µM) | –
13 | COCCOc1ccc2c(=O)[nH]c3c(S(=O)(=O)c4ccc(C)cc4C)nnn3c2c1 [Compound 43, 3-(2,4-dimethylphenyl)sulfonyl-8-(2-methoxyethoxy)-4H-triazolo[1,5-a]quinazolin-5-one] | >=100 μM | ≥ 100 | 2 | 3.5 (≈ 8.17 µM) | 0.8 (≈ 1.87 µM) | –
14 | Cc1cc(Br)c(S(=O)(=O)c2nnn3c2[nH]c(=O)c2ccccc23)cc1C [Compound 44, 3-(2-bromo-4,5-dimethyl-phenyl)sulfonyl-4H-triazolo[1,5-a]quinazolin-5-one] | >=100 μM | ≥ 100 | 6 | 7.2 (≈ 16.6 µM) | 1.85 (≈ 4.27 µM) | –
15 | Cc1ccc(S(=O)(=O)c2nnn3c2[nH]c(=O)c2ccc(N4CCC4)cc23)c(C)c1 [Compound 45, 8-(azetidin-1-yl)-3-(2,4-dimethylphenyl)sulfonyl-4H-triazolo[1,5-a]quinazolin-5-one] | – | ≥ 100 | 6 | 8.85 (≈ 21.6 µM) | 1.7 (≈ 4.15 µM) | >=100 μM
16 | Cc1ccc(S(=O)(=O)c2nnn3c2[nH]c(=O)c2cc(O)ccc23)c(C)c1 [Compound 46, 3-(2,4-dimethylphenyl)sulfonyl-7-hydroxy-4H-triazolo[1,5-a]quinazolin-5-one] | >=100 μM | ≥ 100 | 1 | 1.4 (≈ 3.78 µM) | 0.4 (≈ 1.08 µM) | –
17 | COc1cccc2c(=O)[nH]c3c(S(=O)(=O)c4ccc(C)cc4C)nnn3c12 [Compound 47, 3-(2,4-dimethylphenyl)sulfonyl-9-methoxy-4H-triazolo[1,5-a]quinazolin-5-one] | >=100 μM | ≥ 100 | 2 | 1.95 (≈ 5.07 µM) | 0.5 (≈ 1.3 µM) | –
18 | Cc1ccc(S(=O)(=O)c2nnn3c2[nH]c(=O)c2ccc(NCCN4CCOCC4)cc23)c(C)c1 [Compound 48, 3-(2,4-dimethylphenyl)sulfonyl-8-(2-morpholinoethylamino)-4H-triazolo[1,5-a]quinazolin-5-one] | 50 µM | 50 (≈ 24.1 µg/mL) | 8 | 7 (≈ 14.5 µM) | 1.6 (≈ 3.32 µM) | –
19 | Cc1ccc(S(=O)(=O)c2nnn3c2[nH]c(=O)c2ccc(NC4CCOCC4)cc23)c(C)c1 [Compound 49, 3-(2,4-dimethylphenyl)sulfonyl-8-(tetrahydropyran-4-ylamino)-4H-triazolo[1,5-a]quinazolin-5-one] | 50 µM | ≥ 100 | 3 | 4.5 (≈ 9.92 µM) | 0.75 (≈ 1.65 µM) | –
20 | Cc1ccc(S(=O)(=O)c2nnn3c2[nH]c(=O)c2cccc(O)c23)c(C)c1 [Compound 50, 3-(2,4-dimethylphenyl)sulfonyl-9-hydroxy-4H-triazolo[1,5-a]quinazolin-5-one] | >=100 μM | ≥ 100 | 3 | 3.75 (≈ 10.1 µM) | 1.05 (≈ 2.83 µM) | –
21 | Cc1cc(C)c(S(=O)(=O)c2nnn3c2[nH]c(=O)c2ccccc23)c(Cl)c1 [Compound 51, 3-(2-chloro-4,6-dimethyl-phenyl)sulfonyl-4H-triazolo[1,5-a]quinazolin-5-one] | >=100 μM | ≥ 100 | 6 | 5.25 (≈ 13.5 µM) | 1.9 (≈ 4.89 µM) | –
22 | Cc1cc(C)c(S(=O)(=O)c2nnn3c2[nH]c(=O)c2ccccc23)c(Br)c1 [Compound 52, 3-(2-bromo-4,6-dimethyl-phenyl)sulfonyl-4H-triazolo[1,5-a]quinazolin-5-one] | >=100 μM | ≥ 100 | 6 | 6.1 (≈ 14.1 µM) | 1.95 (≈ 4.5 µM) | –
23 | Cc1ccc(S(=O)(=O)c2nnn3c2[nH]c(=O)c2ccc(OCCO)cc23)c(C)c1 [Compound 53, 3-(2,4-dimethylphenyl)sulfonyl-8-(2-hydroxyethoxy)-4H-triazolo[1,5-a]quinazolin-5-one] | >=100 μM | ≥ 100 | 2 | 2.2 (≈ 5.31 µM) | 0.7 (≈ 1.69 µM) | –
24 | COC(=O)CCCOc1ccc2c(=O)[nH]c3c(S(=O)(=O)c4ccc(C)cc4C)nnn3c2c1 [Compound 55, methyl 4-[[3-(2,4-dimethylphenyl)sulfonyl-5-oxo-4H-triazolo[1,5-a]quinazolin-8-yl]oxy]butanoate] | >=100 μM | ≥ 100 | 3 | 2.45 (≈ 5.21 µM) | 1 (≈ 2.13 µM) | –
25 | COCCOc1cc2c(cc1O)c(=O)[nH]c1c(S(=O)(=O)c3ccc(C)cc3C)nnn12 [Compound 58, 3-(2,4-dimethylphenyl)sulfonyl-7-hydroxy-8-(2-methoxyethoxy)-4H-triazolo[1,5-a]quinazolin-5-one] | >=100 μM | ≥ 100 | 4 | 4.1 (≈ 9.22 µM) | 0.9 (≈ 2.02 µM) | –
26 | COCCOCCOCCOc1ccc2c(=O)[nH]c3c(S(=O)(=O)c4ccc(C)cc4C)nnn3c2c1 [Compound 59, 3-(2,4-dimethylphenyl)sulfonyl-8-[2-[2-(2-methoxyethoxy)ethoxy]ethoxy]-4H-triazolo[1,5-a]quinazolin-5-one] | >=100 μM | ≥ 100 | 8 | 6.5 (≈ 12.6 µM) | 2.6 (≈ 5.03 µM) | –
